Assay results as given in paper PMC11183015, “In vivo stable ^211At-labeled prostate-specific membrane antigen-targeted tracer using a neopentyl glycol structure” (EJNMMI Radiopharmacy and Chemistry, 2024).

Experiments:
PSMA = PSMA (Homo sapiens, UniProt Q04609); test: Competitive inhibition of [125I]DCIT binding to LNCaP cells; design: endogenous in cells; host or cells: LNCaP (human prostate cancer cell line, RIKEN BRC); conditions: competitor [125I]DCIT, 37 °C, 1 h
Description: The human prostate cancer cell line LNCaP was provided by RIKEN BioResource Center (BRC) through the National BioResource Project of MEXT/AMED, Japan. LNCaP cells were cultured according to protocols prescribed by RIKEN BRC. LNCaP cells were seeded in 24-well plates (~ 1.5 × 10^5 cells/500 µL/well) coated with 0.01% poly-L-lysine (Sigma-Aldrich, Tokyo). After washing twice with assay medium (RPMI 1640 supplemented with 0.5% BSA), 250 µL of assay medium was added to each well. Each PSMA derivative and [^125I]DCIT dissolved in assay medium (250 µL) were added to the well, and the plates were then incubated at 37 °C for 1 h. After removing the assay medium, the cells were washed twice with assay medium (250 µL × 2). All cells were lysed with 1 M NaOH (500 µL), and the solution was collected. The cells were washed twice with PBS (250 µL × 2), and the solution was mixed with the previous solution. The radioactivity in the solution was measured using an auto-well gamma counter. The IC50 value was calculated by fitting with nonlinear regression using GraphPad Prism 8.4.3 (GraphPad Software, Inc., San Diego).

[1] = Biodistribution of radioactivity in normal mice; format: in vivo, mouse; conditions: normal ddY mice, i.v.
Description: Six-week-old male ddY mice were injected via the tail vein with each radiolabeled PSMA derivative. Animals were sacrificed and the organs were dissected at 10 min, 1 h, 3 h, and 6 h after injection. Metabolic cages were used for housing normal mice. The tissues of interest were excised and weighed, and the radioactivity counts in each tissue were determined using an auto-well gamma counter. Each value was expressed as the mean percent injected dose/g tissue ± SD for a group of 3–5 animals, except those for the stomach, intestine, and thyroid.

LNCaP cell xenografts = test: Biodistribution of radioactivity in tumor-bearing mice; format: in vivo, mouse; conditions: LNCaP tumor-bearing BALB/c-nu/nu mice
Description: Animal studies were conducted in accordance with the institutional guidelines approved by the Chiba University Animal Care Committee (Permit No. 4–183). Five-week-old male ddY mice and BALB/c-nu/nu mice were purchased from Japan SLC Inc. (Hamamatsu, Japan). LNCaP cells (5.0 × 10^6 cells) were suspended in 100 μL of PBS and Matrigel (BD Biosciences, Franklin Lakes, NJ, USA) in a 1:1 ratio. Tumor xenograft models were prepared via subcutaneous injection of this LNCaP cell suspension into BALB/c nude mice.
Biodistribution studies were conducted using male BALB/c-nu/nu mice bearing LNCaP cell xenografts at 1 and 3 h postinjection of [^211At]At-NpG-D-PSMA (100 µL, 37 kBq) and 1 and 6 h postinjection of ^125I-labeled PSMA derivative (100 µL, 11.1 kBq). In the blocking study, [^125I]I-NpG-D-PSMA was coinjected with 2-PMPA (50 mg/kg weight) into tumor-bearing mice via the tail vein. At 1 h postinjection, the mice were sacrificed. The tissues of interest were excised and weighed, and the radioactivity counts in each tissue were determined using an auto-well gamma counter. Each value was expressed as the mean percent injected dose/g tissue ± SD for a group of 3–5 animals, except those for the stomach, intestine, and thyroid.

PSMA, sequence (Q04609 whole entry): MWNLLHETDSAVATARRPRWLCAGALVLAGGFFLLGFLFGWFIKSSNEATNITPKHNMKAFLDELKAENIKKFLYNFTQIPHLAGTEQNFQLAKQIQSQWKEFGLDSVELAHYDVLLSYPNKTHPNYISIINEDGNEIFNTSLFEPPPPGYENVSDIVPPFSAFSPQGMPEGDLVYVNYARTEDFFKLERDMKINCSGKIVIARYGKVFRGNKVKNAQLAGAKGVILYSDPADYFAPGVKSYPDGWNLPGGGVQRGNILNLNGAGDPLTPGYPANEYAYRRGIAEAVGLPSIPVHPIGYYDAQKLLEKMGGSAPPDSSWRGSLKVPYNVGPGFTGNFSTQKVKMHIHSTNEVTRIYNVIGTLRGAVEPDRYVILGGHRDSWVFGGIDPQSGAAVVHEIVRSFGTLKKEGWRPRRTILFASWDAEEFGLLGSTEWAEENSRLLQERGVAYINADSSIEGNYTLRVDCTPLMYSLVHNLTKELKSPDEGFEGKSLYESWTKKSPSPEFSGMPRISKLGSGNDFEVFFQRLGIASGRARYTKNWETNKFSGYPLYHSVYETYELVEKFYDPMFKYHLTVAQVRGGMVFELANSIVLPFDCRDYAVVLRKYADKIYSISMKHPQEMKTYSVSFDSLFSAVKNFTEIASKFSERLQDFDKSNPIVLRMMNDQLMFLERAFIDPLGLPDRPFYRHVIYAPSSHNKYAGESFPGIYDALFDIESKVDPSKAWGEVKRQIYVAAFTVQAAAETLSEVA

## O=C([O-])CN1CCN(CC(=O)[O-])CCN(CC(=O)NC[C@H]2CC[C@H](C(=O)N[C@@H](Cc3ccc4ccccc4c3)C(=O)NCCCC[C@H](NC(=O)N[C@@H](CCC(=O)O)C(=O)O)C(=O)O)CC2)CCN(CC(=O)[O-])CC1.[Ga+3] [Ga-PSMA-617, reference compound]
PSMA
  IC50: 7.56 nM

## O=C(O)CCC(NC(=O)NC(CCCCNC(=O)C(Cc1ccc2ccccc2c1)NC(=O)C(CCC(=O)O)NC(=O)C(CCC(=O)O)NC(=O)COCC(CO)(CO)CI)C(=O)O)C(=O)O [I-NpG-D-PSMA]
PSMA
  IC50: 6.06 nM

## O=C(O)CCC(NC(=O)NC(CCCCNC(=O)C(Cc1ccc2ccccc2c1)NC(=O)C(CCC(=O)O)NC(=O)C(CCC(=O)O)NC(=O)COCC(CO)(CO)CI)C(=O)O)C(=O)O [I-NpG-L-PSMA]
PSMA
  IC50: 4.04 nM

## O=C([O-])CN1CCN(CC(=O)[O-])CCN(CC(=O)NC[C@H]2CC[C@H](C(=O)N[C@@H](Cc3ccc4ccccc4c3)C(=O)NCCCC[C@H](NC(=O)N[C@@H](CCC(=O)O)C(=O)O)C(=O)O)CC2)CCN(CC(=O)[O-])CC1.[67Ga+3] [[^67Ga]Ga-PSMA-617, reference compound]
[1]; 10 min
  Radioactivity in Blood: 3.84 ± 0.55 %ID/g
  Radioactivity in Bone: 1.54 ± 0.19 %ID/g
  Radioactivity in Heart: 1.51 ± 0.13 %ID/g
  Radioactivity in Intestine: 1.58 ± 0.17 %ID
  Radioactivity in Kidney: 82.9 ± 12.2 %ID/g
  Radioactivity in Liver: 0.98 ± 0.13 %ID/g
  Radioactivity in Lung: 3.52 ± 0.29 %ID/g
  Radioactivity in Muscle: 1.34 ± 0.18 %ID/g
  Radioactivity in Neck: 0.03 ± 0.01 %ID
  Radioactivity in Pancreas: 1.20 ± 0.22 %ID/g
  Radioactivity in Spleen: 1.76 ± 0.68 %ID/g
  Radioactivity in Stomach: 0.32 ± 0.03 %ID
[1]; 1 h
  Radioactivity in Blood: 0.26 ±0.15 %ID/g
  Radioactivity in Bone: 0.20 ± 0.09 %ID/g
  Radioactivity in Intestine: 0.83 ± 0.25 %ID
  Radioactivity in Kidney: 11.1 ± 3.22 %ID/g
  Radioactivity in Liver: 0.15 ± 0.03 %ID/g
  Radioactivity in Lung: 0.26 ± 0.12 %ID/g
  Radioactivity in Muscle: 0.15 ± 0.07 %ID/g
  Radioactivity in Neck: 0.01 ± 0.01 %ID
  Radioactivity in Pancreas: 0.11 ± 0.04 %ID/g
  Radioactivity in Spleen: 0.12 ± 0.08 %ID/g
  Radioactivity in Stomach: 0.57 ± 0.31 %ID
[1]; 3 h
  Radioactivity in Heart: 0.02 ± 0.03 %ID/g
  Radioactivity in Intestine: 0.21 ± 0.09 %ID
  Radioactivity in Kidney: 1.12 ± 0.34 %ID/g
  Radioactivity in Liver: 0.06 ± 0.00 %ID/g
  Radioactivity in Lung: 0.03 ± 0.02 %ID/g
  Radioactivity in Muscle: 0.02 ± 0.02 %ID/g
  Radioactivity in Neck: 0.00 ± 0.00 %ID
  Radioactivity in Stomach: 0.03 ± 0.02 %ID
[1]; 6 h
  Radioactivity in Intestine: 0.34 ± 0.17 %ID
  Radioactivity in Kidney: 1.06 ± 0.42 %ID/g
  Radioactivity in Liver: 0.05 ±0.01 %ID/g
  Radioactivity in Lung: 0.02 ± 0.02 %ID/g
  Radioactivity in Muscle: 0.02 ± 0.02 %ID/g
  Radioactivity in Neck: 0.00 ± 0.00 %ID
  Radioactivity in Stomach: 0.05 ± 0.03 %ID
[1]; 6 h, metabolic cages
  Radioactivity in Feces: 0.19 ± 0.12 %ID
  Radioactivity in Urine: 66.7 ± 15.8 %ID

## O=C(O)CCC(NC(=O)NC(CCCCNC(=O)C(Cc1ccc2ccccc2c1)NC(=O)C(CCC(=O)O)NC(=O)C(CCC(=O)O)NC(=O)COCC(CO)(CO)C[211At])C(=O)O)C(=O)O [[^211At]At-NpG-D-PSMA]
LNCaP cell xenografts; 1 h
  Radioactivity in Blood: 0.41 ± 0.10 %ID/g
  Radioactivity in Bone: 0.40 ± 0.22 %ID/g
  Radioactivity in Heart: 0.65 ± 0.22 %ID/g
  Radioactivity in Intestine: 1.94 ± 0.22 %ID
  Radioactivity in Kidney: 181 ± 13.5 %ID/g
  Radioactivity in Liver: 0.38 ± 0.08 %ID/g
  Radioactivity in Lung: 1.84 ± 0.22 %ID/g
  Radioactivity in Muscle: 0.30 ± 0.12 %ID/g
  Radioactivity in Neck: 0.04 ± 0.03 %ID
  Radioactivity in Pancreas: 0.95 ± 0.48 %ID/g
  Radioactivity in Spleen: 11.8 ± 1.26 %ID/g
  Radioactivity in Stomach: 0.37 ± 0.15 %ID
  Radioactivity in Tumor: 13.4 ± 3.17 %ID/g
LNCaP cell xenografts; 3 h
  Radioactivity in Blood: 0.09 ± 0.02 %ID/g
  Radioactivity in Bone: 0.29 ± 0.18 %ID/g
  Radioactivity in Heart: 0.23 ± 0.08 %ID/g
  Radioactivity in Intestine: 1.74 ± 0.39 %ID
  Radioactivity in Kidney: 132 ± 37.8 %ID/g
  Radioactivity in Liver: 0.11 ± 0.04 %ID/g
  Radioactivity in Lung: 0.55 ± 0.06 %ID/g
  Radioactivity in Muscle: 0.13 ± 0.09 %ID/g
  Radioactivity in Neck: 0.05 ± 0.04 %ID
  Radioactivity in Pancreas: 0.27 ± 0.05 %ID/g
  Radioactivity in Spleen: 4.67 ± 3.27 %ID/g
  Radioactivity in Stomach: 0.55 ± 0.33 %ID
  Radioactivity in Tumor: 16.9 ± 8.45 %ID/g
